Experiment: Therapeutic drug monitoring of teicoplanin trough concentration (Cmin) during treatment, LC-MS/MS
Assay type: in vivo, human
Conditions: for TDM ≤ 7d (teicoplanin trough concentration) / TDM ≥ 15d (teicoplanin trough concentration): median [IQR], LC-MS/MS
Description: Teicoplanin (Targocid, Sanofi, Dublin, Ireland) was administered intravenously for 30 min. The prescribed dose regimens were at the discretion of treating physicians, and the recommended regimens were not always followed.
Blood samples (5 mL) were collected from the elbow into ethylenediaminetetraacetic acid-containing Vacutainers® (Becton Dickinson, Milan, Italy) in the morning before teicoplanin administration and after drug withdrawal. Samples were promptly refrigerated and centrifuged at 2500 × g for 10 min before 2 mL of supernatant was preserved at -20 °C for subsequent analysis. Teicoplanin concentrations were determined using liquid chromatography-tandem mass spectrometry. The linear range of the method was 1.0–100.0 mg/L, and the lower limit of quantification was 1.0 mg/L. The relative standard deviation of intra- and inter-batch precision was ≤ 10%.
Teicoplanin concentrations were dynamically monitored. Concentrations at 3, ≤ 7, 8–14, and ≥ 15 days after the first dose and within 2 h of the next scheduled dose were recorded as TDM3d, TDM≤7d, TDM8-14d, and TDM≥15d, respectively. Concentrations at 3, ≤ 7, 8–14, and ≥ 15 days after the last teicoplanin dose (withdrawal) were recorded as TDMw3d, TDMw≤7d, TDMw8-14d, and TDMw≥15d. respectively (Fig. 1a). The Cmin target was ≥ 10 mg/L [6, 7, 23]; a concentration < 10 mg/L was considered suboptimal. Average TDM (TDMa) was defined as the mean Cmin after 3 days of treatment.

[1] = ≤ 7 days after first dose, LR-A + MR-A
[2] = ≤ 7 days after first dose, LR-B + MR-A
[3] = ≤ 7 days after first dose, LR-B + MR-B
[4] = ≤ 7 days after first dose, LR-C + MR-B
[5] = ≤ 7 days after first dose, LR-C + MR-C
[6] = ≥ 15 days after first dose, LR-A + MR-A
[7] = ≥ 15 days after first dose, LR-B + MR-A
[8] = ≥ 15 days after first dose, LR-B + MR-B
[9] = ≥ 15 days after first dose, LR-C + MR-B

Teicoplanin
target concentration achievement rate (≥ 10 mg/L) (TDM8-14d, LR-C + MR-C regimen): 100% | target concentration achievement rate (≥ 10 mg/L) (TDM3d, LR-A + MR-A regimen): 0% | target concentration achievement rate (≥ 10 mg/L) (TDM3d, LR-B + MR-A regimen): 10.5% | target concentration achievement rate (≥ 10 mg/L) (TDM3d, LR-B + MR-B regimen): 50.0% | target concentration achievement rate (≥ 10 mg/L) (TDM3d, LR-C + MR-B regimen): 62.5% | target concentration achievement rate (≥ 10 mg/L) (TDM3d, LR-C + MR-C regimen): 78.6% | target concentration achievement rate (≥ 10 mg/L) (TDM≤7d, LR-A + MR-A regimen): 18.3% | target concentration achievement rate (≥ 10 mg/L) (TDM≤7d, LR-B + MR-A regimen): 24.1% | target concentration achievement rate (≥ 10 mg/L) (TDM≤7d, LR-B + MR-B regimen): 57.2% | target concentration achievement rate (≥ 10 mg/L) (TDM≤7d, LR-C + MR-B regimen): 56.2% | target concentration achievement rate (≥ 10 mg/L) (TDM≤7d, LR-C + MR-C regimen): 85.7% | target concentration achievement rate (≥ 10 mg/L) (TDM≥15d, LR-A + MR-A regimen): 77.8% | target concentration achievement rate (≥ 10 mg/L) (TDM≥15d, LR-B + MR-A regimen): 84.6% | target concentration achievement rate (≥ 10 mg/L) (TDM≥15d, LR-B + MR-B regimen): 100% | target concentration achievement rate (≥ 10 mg/L) (TDM≥15d, LR-C + MR-B regimen): 100% | patients achieving therapeutic concentrations (after 14 days of administration, all patients): more than 80% | patients with TDM 10–20 mg/L ≤ 7d, N (%) [1]: 6(12.2) | patients with TDM < 10 mg/L ≤ 7d, N (%) [1]: 40(81.7) | patients with TDM > 20 mg/L ≤ 7d, N (%) [1]: 3(6.1) | TDM ≤ 7d (teicoplanin trough concentration) (≤ 7 days after first dose, LR-A + MR-A (200 mg once daily, then 200 mg once daily)): 6.4[4.7,8.2] mg/L | patients with TDM 10–20 mg/L ≤ 7d, N (%) [2]: 10(18.5) | patients with TDM < 10 mg/L ≤ 7d, N (%) [2]: 41(75.9) | patients with TDM > 20 mg/L ≤ 7d, N (%) [2]: 3(5.6) | TDM ≤ 7d (teicoplanin trough concentration) (≤ 7 days after first dose, LR-B + MR-A (400 mg once daily, then 200 mg once daily)): 7.2[5.5,10.0] mg/L | patients with TDM 10–20 mg/L ≤ 7d, N (%) [3]: 2(28.6) | patients with TDM < 10 mg/L ≤ 7d, N (%) [3]: 3(42.8) | patients with TDM > 20 mg/L ≤ 7d, N (%) [3]: 2(28.6) | TDM ≤ 7d (teicoplanin trough concentration) (≤ 7 days after first dose, LR-B + MR-B (400 mg once daily, then 400 mg once daily)): 12.42[8.3,22.0] mg/L | patients with TDM 10–20 mg/L ≤ 7d, N (%) [4]: 9(56.2) | patients with TDM < 10 mg/L ≤ 7d, N (%) [4]: 7(43.8) | patients with TDM > 20 mg/L ≤ 7d, N (%) [4]: 0 | TDM ≤ 7d (teicoplanin trough concentration) (≤ 7 days after first dose, LR-C + MR-B (400 mg at 12-h intervals, then 400 mg once daily)): 11.0[7.0,12.6] mg/L | patients with TDM 10–20 mg/L ≤ 7d, N (%) [5]: 8(57.1) | patients with TDM < 10 mg/L ≤ 7d, N (%) [5]: 2(14.3) | patients with TDM > 20 mg/L ≤ 7d, N (%) [5]: 4(28.6) | TDM ≤ 7d (teicoplanin trough concentration) (≤ 7 days after first dose, LR-C + MR-C (400 mg at 12-h intervals, then 400 mg twice daily)): 14.4[12.0,21.2] mg/L | TDM ≤ 7d (teicoplanin trough concentration) (≤ 7 days after first dose, all patients (N = 204), iv): 7.6[5.6,12.2] mg/L | patients having suboptimal concentrations (< 10 mg/L), TDM≤7d (≤ 7 days after first dose, all patients, 93 patients): 66.4% | patients with TDM 10–20 mg/L ≥ 15d, N (%) [6]: 16(59.3) | patients with TDM < 10 mg/L ≥ 15d, N (%) [6]: 6(22.2) | patients with TDM > 20 mg/L ≥ 15d, N (%) [6]: 5(18.5) | TDM ≥ 15d (teicoplanin trough concentration) (≥ 15 days after first dose, LR-A + MR-A (200 mg once daily, then 200 mg once daily)): 12.7[10.1,17.4] mg/L | patients with TDM 10–20 mg/L ≥ 15d, N (%) [7]: 15(57.7) | patients with TDM < 10 mg/L ≥ 15d, N (%) [7]: 4(15.4) | patients with TDM > 20 mg/L ≥ 15d, N (%) [7]: 7(26.9) | TDM ≥ 15d (teicoplanin trough concentration) (≥ 15 days after first dose, LR-B + MR-A (400 mg once daily, then 200 mg once daily)): 15.7[11.9,22.0] mg/L | patients with TDM 10–20 mg/L ≥ 15d, N (%) [8]: 1(50.0) | patients with TDM < 10 mg/L ≥ 15d, N (%) [8]: 0 | patients with TDM > 20 mg/L ≥ 15d, N (%) [8]: 1(50.0) | TDM ≥ 15d (teicoplanin trough concentration) (≥ 15 days after first dose, LR-B + MR-B (400 mg once daily, then 400 mg once daily)): 20.3[13.8,20.4] mg/L | patients with TDM 10–20 mg/L ≥ 15d, N (%) [9]: 1(33.3) | patients with TDM < 10 mg/L ≥ 15d, N (%) [9]: 0 | patients with TDM > 20 mg/L ≥ 15d, N (%) [9]: 2(66.7) | TDM ≥ 15d (teicoplanin trough concentration) (≥ 15 days after first dose, LR-C + MR-B (400 mg at 12-h intervals, then 400 mg once daily)): 23.0[19.4,28.6] mg/L | TDM ≥ 15d (teicoplanin trough concentration) (≥ 15 days after first dose, all patients (N = 204), iv): 15.8[11.0,21.8] mg/L | patients having suboptimal concentrations (< 10 mg/L), TDM≥15d (≥ 15 days after first dose, all patients, 10 patients): 17.0%

— publication PMC11149339, “Necessity for higher teicoplanin doses in older adults: a multicenter prospective observational study in China” (BMC Geriatrics, 2024)
